{
  "source": "paper PMC9374667",
  "about": "(Communications Biology, 2022)",
  "key": {"[1]": {"tested_on": "db/db mice", "assay": "Indirect calorimetry (CLAMS): VO2, VCO2, RER", "assay_type": "in vivo", "parameters": "Figure 3g (VCO2), individual mice 1-6: unit not given here", "conditions": "for Figure 3g (VCO2), individual mice 1-6 / Figure 3e (VO2), individual mice 1-6: BBR 150mg/kg; for Figure 3e (VO2), individual mice 1-6: in mL/kg/h (unit assumed); for Average RER (VCO2/VO2) / Average VCO2 / Average VO2: 150 mg/kg for 5 weeks, individual mice, 150 mg/kg", "experimental": "(§1) At week 5 of treatment, basal metabolic parameters of mice were measured using the Comprehensive Lab Animal Monitoring System (CLAMS, Columbus Instruments, Columbus, OH). […] The number of times the infrared beams were broken along the X- or Y-axis was used to measure the dynamic activity of mice. The respiratory exchange rate (RER) was calculated using classical Lusk theory and equations RER = VCO2/VO2."}, "[2]": {"tested_on": "db/db mice", "assay": "Spontaneous motor activity (CLAMS, infrared beam breaks)", "assay_type": "in vivo", "conditions": "BBR 150mg/kg, individual mice 1-6", "experimental": "as §1"}, "[3]": {"conditions": "no reference given; cited from earlier work"}},
  "note": "“And” between values parts separate entries of the source, which are not always exact repeats. Equal values may be shown once.",
  "data": [
    {"compound": "COc1ccc2cc3[n+](cc2c1OC)CCc1cc2c(cc1-3)OCO2", "note": "[BBR, Berberine chloride dihydrate]", "values": [
      {"measurement": "Figure 3g (VCO2), individual mice 1-6", "setting": "[1]; TIME 09:00:00", "value": "2187 and 1798.5 and 1382 and 1550.5 and 1282 and 1729"},
      {"measurement": "Figure 3e (VO2), individual mice 1-6", "setting": "[1]; TIME 09:00:00", "value": "2463.5 and 1992.5 and 1618.5 and 1830.5 and 1604 and 1996.5"},
      {"measurement": "Figure 3g (VCO2), individual mice 1-6", "setting": "[1]; TIME 10:00:00", "value": "2025.5 and 1306.5 and 1293 and 1507.5 and 1152.5 and 1351.5"},
      {"measurement": "Figure 3e (VO2), individual mice 1-6", "setting": "[1]; TIME 10:00:00", "value": "2239.5 and 1396.5 and 1525.5 and 1818.5 and 1443 and 1558.5"},
      {"measurement": "Figure 3g (VCO2), individual mice 1-6", "setting": "[1]; TIME 11:00:00", "value": "1508.5 and 1801 and 1600.5 and 1450.5 and 1810.5 and 2131.5"},
      {"measurement": "Figure 3e (VO2), individual mice 1-6", "setting": "[1]; TIME 11:00:00", "value": "1686.5 and 2034 and 1941 and 1727 and 2185.5 and 2486.5"},
      {"measurement": "Figure 3g (VCO2), individual mice 1-6", "setting": "[1]; TIME 12:00:00", "value": "1560 and 1682.5 and 1287 and 1655.5 and 1234 and 1351"},
      {"measurement": "Figure 3e (VO2), individual mice 1-6", "setting": "[1]; TIME 12:00:00", "value": "1799.5 and 1905 and 1604.5 and 1986.5 and 1472.5 and 1528"},
      {"measurement": "Figure 3g (VCO2), individual mice 1-6", "setting": "[1]; TIME 13:00:00", "value": "1425.5 and 1753 and 2069 and 1636 and 1111.5 and 1447.5"},
      {"measurement": "Figure 3e (VO2), individual mice 1-6", "setting": "[1]; TIME 13:00:00", "value": "1585 and 1943.5 and 2523.5 and 1919 and 1415 and 1703"},
      {"measurement": "Figure 3g (VCO2), individual mice 1-6", "setting": "[1]; TIME 14:00:00", "value": "1628.5 and 1269.5 and 1997.5 and 1334 and 1382 and 1265.5"},
      {"measurement": "Figure 3e (VO2), individual mice 1-6", "setting": "[1]; TIME 14:00:00", "value": "1785 and 1394 and 2318.5 and 1559 and 1696.5 and 1512.5"},
      {"measurement": "Figure 3g (VCO2), individual mice 1-6", "setting": "[1]; TIME 15:00:00", "value": "1579.5 and 1285 and 1642.5 and 1147.5 and 2064.5 and 1675"},
      {"measurement": "Figure 3e (VO2), individual mice 1-6", "setting": "[1]; TIME 15:00:00", "value": "1826 and 1499.5 and 1948.5 and 1433.5 and 2445.5 and 1943"},
      {"measurement": "Figure 3g (VCO2), individual mice 1-6", "setting": "[1]; TIME 16:00:00", "value": "1579 and 1741 and 1899.5 and 1326 and 1630.5 and 1658.5"},
      {"measurement": "Figure 3e (VO2), individual mice 1-6", "setting": "[1]; TIME 16:00:00", "value": "1816.5 and 2044.5 and 2249 and 1622.5 and 1845.5 and 1914"},
      {"measurement": "Figure 3g (VCO2), individual mice 1-6", "setting": "[1]; TIME 17:00:00", "value": "1290.5 and 1905.5 and 1610 and 1666.5 and 1315 and 1412.5"},
      {"measurement": "Figure 3e (VO2), individual mice 1-6", "setting": "[1]; TIME 17:00:00", "value": "1507 and 2598 and 1769 and 2019 and 1551.5 and 1596.5"},
      {"measurement": "Figure 3g (VCO2), individual mice 1-6", "setting": "[1]; TIME 18:00:00", "value": "1292.5 and 1365.5 and 1937 and 1461.5 and 1206 and 1444"},
      {"measurement": "Figure 3e (VO2), individual mice 1-6", "setting": "[1]; TIME 18:00:00", "value": "1496 and 1510 and 2285 and 1793 and 1482.5 and 1701"},
      {"measurement": "Figure 3g (VCO2), individual mice 1-6", "setting": "[1]; TIME 19:00:00", "value": "1404 and 1310 and 1770.5 and 1481 and 1876 and 2094"},
      {"measurement": "Figure 3e (VO2), individual mice 1-6", "setting": "[1]; TIME 19:00:00", "value": "1643.5 and 1465 and 2034 and 1838.5 and 2235 and 2481.5"},
      {"measurement": "Figure 3g (VCO2), individual mice 1-6", "setting": "[1]; TIME 20:00:00", "value": "1181 and 2034.5 and 1933 and 1597 and 1575 and 1493.5"},
      {"measurement": "Figure 3e (VO2), individual mice 1-6", "setting": "[1]; TIME 20:00:00", "value": "1393.5 and 2338.5 and 2268.5 and 1885.5 and 1848 and 1679"},
      {"measurement": "Figure 3g (VCO2), individual mice 1-6", "setting": "[1]; TIME 21:00:00", "value": "1529.5 and 1566 and 1830 and 1676.5 and 1825.5 and 1630.5"},
      {"measurement": "Figure 3e (VO2), individual mice 1-6", "setting": "[1]; TIME 21:00:00", "value": "1863.5 and 1748.5 and 2189 and 2027 and 2201.5 and 1886"},
      {"measurement": "Figure 3g (VCO2), individual mice 1-6", "setting": "[1]; TIME 22:00:00", "value": "1627 and 2225 and 1746.5 and 1760.5 and 1520.5 and 2058.5"},
      {"measurement": "Figure 3e (VO2), individual mice 1-6", "setting": "[1]; TIME 22:00:00", "value": "1913.5 and 2540.5 and 2028.5 and 2082.5 and 1881 and 2440"},
      {"measurement": "Figure 3g (VCO2), individual mice 1-6", "setting": "[1]; TIME 23:00:00", "value": "1717.5 and 1505 and 2209 and 1848.5 and 1914.5 and 1764"},
      {"measurement": "Figure 3e (VO2), individual mice 1-6", "setting": "[1]; TIME 23:00:00", "value": "1949 and 1704 and 2610 and 2181 and 2319.5 and 2010"},
      {"measurement": "Figure 3g (VCO2), individual mice 1-6", "setting": "[1]; TIME 1900-01-01", "value": "2124.5 and 2214 and 2120 and 1937 and 2080.5 and 2184"},
      {"measurement": "Figure 3g (VCO2), individual mice 1-6", "setting": "[1]; TIME 1900-01-01 01:00:00", "value": "2199 and 2168 and 2133.5 and 2137.5"},
      {"measurement": "Figure 3e (VO2), individual mice 1-6", "setting": "[1]; TIME 1900-01-01 01:00:00", "value": "2537.5 and 2453.5 and 2566.5 and 2667.5"},
      {"measurement": "Figure 3e (VO2), individual mice 1-6", "setting": "[1]; TIME 1900-01-01", "value": "2407.5 and 2513.5 and 2566 and 2292.5 and 2527.5 and 2541"},
      {"measurement": "Average RER (VCO2/VO2)", "setting": "[1]; db/db mice, day (light)", "value": "0.8616 and 0.8798 and 0.8875 and 0.8398 and 0.8298 and 0.8335"},
      {"measurement": "Average VCO2", "setting": "[1]; db/db mice, day (light)", "value": "27.0427 mL/min/kg and 26.0915 mL/min/kg and 26.8287 mL/min/kg and 27.4625 mL/min/kg and 24.4077 mL/min/kg and 25.0565 mL/min/kg"},
      {"measurement": "Average VO2", "setting": "[1]; db/db mice, day (light)", "value": "31.4158 mL/min/kg and 29.6362 mL/min/kg and 30.277 mL/min/kg and 32.69 mL/min/kg and 29.3548 mL/min/kg and 30.0223 mL/min/kg"},
      {"measurement": "Average RER (VCO2/VO2)", "setting": "[1]; db/db mice, night (dark)", "value": "0.8596 and 0.865 and 0.8782 and 0.8452 and 0.8334 and 0.8299"},
      {"measurement": "Average VCO2", "setting": "[1]; db/db mice, night (dark)", "value": "30.8835 mL/min/kg and 33.2053 mL/min/kg and 32.3175 mL/min/kg and 33.4173 mL/min/kg and 30.4887 mL/min/kg and 29.875 mL/min/kg"},
      {"measurement": "Average VO2", "setting": "[1]; db/db mice, night (dark)", "value": "35.933 mL/min/kg and 38.3562 mL/min/kg and 36.82 mL/min/kg and 39.5103 mL/min/kg and 36.573 mL/min/kg and 36.013 mL/min/kg"},
      {"measurement": "Oxygen consumption (VO2) and carbon dioxide elimination (VCO2) levels", "setting": "[1]; db/db mice, light-dark cycle, 5 weeks of treatment, vs vehicle", "value": "significantly higher than those in the vehicle-treated group"},
      {"measurement": "Spontaneous motor activity (Figure 3j)", "setting": "[2]; TIME 09:00:00", "value": "453.5 and 1366 and 855.5 and 150 and 210.5 and 798"},
      {"measurement": "Spontaneous motor activity (Figure 3j)", "setting": "[2]; TIME 10:00:00", "value": "578.5 and 328 and 167.5 and 335.5 and 115 and 382"},
      {"measurement": "Spontaneous motor activity (Figure 3j)", "setting": "[2]; TIME 11:00:00", "value": "144.5 and 288.5 and 281.5 and 646 and 886.5 and 449"},
      {"measurement": "Spontaneous motor activity (Figure 3j)", "setting": "[2]; TIME 12:00:00", "value": "559 and 373.5 and 450.5 and 378.5 and 424.5 and 29.5"},
      {"measurement": "Spontaneous motor activity (Figure 3j)", "setting": "[2]; TIME 13:00:00", "value": "620.5 and 553.5 and 835.5 and 411 and 498 and 330"},
      {"measurement": "Spontaneous motor activity (Figure 3j)", "setting": "[2]; TIME 14:00:00", "value": "823.5 and 171 and 498 and 447 and 397.5 and 455"},
      {"measurement": "Spontaneous motor activity (Figure 3j)", "setting": "[2]; TIME 15:00:00", "value": "870 and 677.5 and 611.5 and 326 and 849.5 and 246"},
      {"measurement": "Spontaneous motor activity (Figure 3j)", "setting": "[2]; TIME 16:00:00", "value": "482.5 and 647.5 and 365.5 and 416.5 and 803.5 and 105"},
      {"measurement": "Spontaneous motor activity (Figure 3j)", "setting": "[2]; TIME 17:00:00", "value": "814 and 1029.5 and 535.5 and 427.5 and 177.5 and 328"},
      {"measurement": "Spontaneous motor activity (Figure 3j)", "setting": "[2]; TIME 18:00:00", "value": "694 and 351 and 1055.5 and 323.5 and 1331.5 and 362"},
      {"measurement": "Spontaneous motor activity (Figure 3j)", "setting": "[2]; TIME 19:00:00", "value": "242 and 551.5 and 453.5 and 327.5 and 706.5 and 367"},
      {"measurement": "Spontaneous motor activity (Figure 3j)", "setting": "[2]; TIME 20:00:00", "value": "34.5 and 1152.5 and 475 and 298.5 and 432.5 and 477"},
      {"measurement": "Spontaneous motor activity (Figure 3j)", "setting": "[2]; TIME 21:00:00", "value": "863 and 737 and 845.5 and 99.5 and 506 and 314"},
      {"measurement": "Spontaneous motor activity (Figure 3j)", "setting": "[2]; TIME 22:00:00", "value": "320.5 and 467 and 701 and 142 and 156 and 371.5"},
      {"measurement": "Spontaneous motor activity (Figure 3j)", "setting": "[2]; TIME 23:00:00", "value": "428.5 and 928 and 390.5 and 869 and 897 and 315.5"},
      {"measurement": "Spontaneous motor activity (Figure 3j)", "setting": "[2]; TIME 1900-01-01 01:00:00", "value": "479.5 and 494 and 426 and 899"},
      {"measurement": "Spontaneous motor activity (Figure 3j)", "setting": "[2]; TIME 1900-01-01", "value": "542.5 and 374 and 305.5 and 238 and 658 and 526"},
      {"measurement": "Oral bioavailability", "setting": "[3]", "value": "below 1%"}
    ]}
  ]
}
